These results are taken from PubChem BioAssay AID260 (DTP/NCI, 2004).

Molecules are shown by their SMILES. Several values for one entry are separate records, joined by “and”; a condition that tells them apart may be missing. Equal values may be shown once. Toxic doses and inconclusive results are not listed.

The assay relates to CD2F1 mice, intracerebral L1210 leukemia, survival T/C. As to the kind of experiment: NCI In Vivo Anticancer Drug Screen. Data for tumor model L1210 Leukemia (intracerebral) in CD2F1 (CDF1) mice. The following applies: higher = longer survival. On the procedure:
The antitumor activity of compounds was measured in mice bearing transplantable tumors. Survival or tumor size were measured and the results are expressed as the measurement made in the treated group (T) divided by the measurement made in the vehicle treated control group (C). The tumor model used in this assay is L1210 Leukemia (intracerebral) in CD2F1 (CDF1) mice

Setting [1] is: endpoint: median survival time, dose: 200.0 mg/kg/injection, schedule: Q01DX009 (ip), vehicle: saline.
Setting [2] is: endpoint: median survival time, dose: 25.0 mg/kg/injection, schedule: Q01DX009 (ip), vehicle: saline with Tween-80.
The mark [3] stands for this setting: endpoint: median survival time, dose: 64.0 mg/kg/injection, schedule: Q01DX005 (ip), vehicle: saline with Tween-80.

On to `Nc1nc(F)nc2c1ncn2C1OC(COP(=O)(O)O)C(O)C1O` (centres undefined), for which the T/C was 109 % of control (endpoint: median survival time, dose: 60.0 mg/kg/injection, schedule: Q01DX009 (ip), vehicle: saline); 106 % of control (endpoint: median survival time, dose: 90.0 mg/kg/injection, schedule: Q01DX009 (ip), vehicle: saline); 116 % of control under setting [1].

For `O=C(Nc1ccccc1)c1c(O)[nH]c(=S)[nH]c1=O`, the T/C (endpoint: median survival time, dose: 12.5 mg/kg/injection, schedule: Q01DX009 (ip), vehicle: saline with Tween-80) is 94 % of control; the T/C under setting [2] is 98 % of control; the T/C (endpoint: median survival time, dose: 50.0 mg/kg/injection, schedule: Q01DX009 (ip), vehicle: saline with Tween-80) was 113 % of control.

For the compound `CC/C(=C(/CC)c1ccc(O)cc1)c1ccc(O)cc1`, the T/C was 104 % of control and 113 % of control (endpoint: median survival time, dose: 8.0 mg/kg/injection, schedule: Q01DX009 (ip), vehicle: saline); 93 % of control and 106 % of control (endpoint: median survival time, dose: 16.0 mg/kg/injection, schedule: Q01DX005 (ip), vehicle: saline with Tween-80); 104 % of control and 113 % of control (endpoint: median survival time, dose: 16.0 mg/kg/injection, schedule: Q01DX009 (ip), vehicle: saline); 93 % of control and 103 % of control (endpoint: median survival time, dose: 32.0 mg/kg/injection, schedule: Q01DX005 (ip), vehicle: saline with Tween-80); 98 % of control and 112 % of control (endpoint: median survival time, dose: 32.0 mg/kg/injection, schedule: Q01DX009 (ip), vehicle: saline); 103 % of control and 116 % of control under setting [3]. In addition, the T/C is 105 % of control and 112 % of control (endpoint: median survival time, dose: 64.0 mg/kg/injection, schedule: Q01DX009 (ip), vehicle: saline); 103 % of control and 105 % of control (endpoint: median survival time, dose: 128.0 mg/kg/injection, schedule: Q01DX005 (ip), vehicle: saline with Tween-80); 112 % of control (endpoint: median survival time, dose: 256.0 mg/kg/injection, schedule: Q01DX009 (ip), vehicle: saline); 86 % of control (endpoint: median survival time, dose: 512.0 mg/kg/injection, schedule: Q01DX009 (ip), vehicle: saline).

For the compound `CN(C)N=Nc1ccccc1Cl`, the T/C is 98 % of control (endpoint: median survival time, dose: 8.0 mg/kg/injection, schedule: Q01DX005 (ip), vehicle: saline + alcohol); 106 % of control (endpoint: median survival time, dose: 16.0 mg/kg/injection, schedule: Q01DX005 (ip), vehicle: saline + alcohol); 102 % of control (endpoint: median survival time, dose: 32.0 mg/kg/injection, schedule: Q01DX005 (ip), vehicle: saline + alcohol); 102 % of control (endpoint: median survival time, dose: 64.0 mg/kg/injection, schedule: Q01DX005 (ip), vehicle: saline + alcohol); 105 % of control (endpoint: median survival time, dose: 128.0 mg/kg/injection, schedule: Q01DX005 (ip), vehicle: saline + alcohol).

In the case of `N[C@H](C(=O)O)[C@@H]1CC(Cl)=NO1`, the T/C is 124 % of control (endpoint: mean survival time, dose: 16.0 mg/kg/injection, schedule: Q01DX009 (ip), vehicle: saline) and 101 % of control (endpoint: mean survival time, dose: 32.0 mg/kg/injection, schedule: Q01DX009 (ip), vehicle: saline).

Turning to `CC[C@H]1CN2CCc3cc(OC)c(OC)cc3[C@@H]2C[C@@H]1C[C@H]1NCCc2cc(OC)c(OC)cc21`, the T/C is 98 % of control (endpoint: median survival time, dose: 2.0 mg/kg/injection, schedule: Q01DX005 (ip), vehicle: Klucel (hydroxypropylcellulose) (HPC)); 101 % of control (endpoint: median survival time, dose: 4.0 mg/kg/injection, schedule: Q01DX005 (ip), vehicle: Klucel (hydroxypropylcellulose) (HPC)); 115 % of control (endpoint: median survival time, dose: 8.0 mg/kg/injection, schedule: Q01DX005 (ip), vehicle: Klucel (hydroxypropylcellulose) (HPC)).

Consider `Nc1ncn(C2OC(CO)C(O)C2O)c(=O)n1` (centres undefined), for which the T/C was 116 % of control (endpoint: mean survival time, dose: 0.75 mg/kg/injection, schedule: Q01DX009 (ip), vehicle: saline); 116 % of control (endpoint: mean survival time, dose: 1.5 mg/kg/injection, schedule: Q01DX009 (ip), vehicle: saline); 120 % of control (endpoint: mean survival time, dose: 3.0 mg/kg/injection, schedule: Q01DX009 (ip), vehicle: saline); 100 % of control (endpoint: median survival time, dose: 0.28 mg/kg/injection, schedule: Q03HX024 (ip), vehicle: saline); 103 % of control (endpoint: median survival time, dose: 0.5 mg/kg/injection, schedule: Q01DX005 (ip), vehicle: water); 151 % of control (endpoint: median survival time, dose: 0.59 mg/kg/injection, schedule: Q03HX024 (ip), vehicle: saline). The T/C reads like this: (endpoint: median survival time, dose: 1.0 mg/kg/injection, schedule: Q01DX005 (ip), vehicle: water) 103 % of control; (endpoint: median survival time, dose: 1.17 mg/kg/injection, schedule: Q03HX024 (ip), vehicle: saline) 261 % of control; (endpoint: median survival time, dose: 2.0 mg/kg/injection, schedule: Q01DX005 (ip), vehicle: water) 114 % of control; (endpoint: median survival time, dose: 2.25 mg/kg/injection, schedule: Q03HX024 (ip), vehicle: saline) 170 % of control; (endpoint: median survival time, dose: 2.34 mg/kg/injection, schedule: Q03HX024 (ip), vehicle: saline) 293 % of control; (endpoint: median survival time, dose: 3.12 mg/kg/injection, schedule: Q01DX009 (ip), vehicle: saline) 213 % of control. In addition, the T/C runs as follows: (endpoint: median survival time, dose: 4.5 mg/kg/injection, schedule: Q03HX024 (ip), vehicle: saline) 113 % of control; (endpoint: median survival time, dose: 4.69 mg/kg/injection, schedule: Q03HX024 (ip), vehicle: saline) 363 % of control; (endpoint: median survival time, dose: 6.0 mg/kg/injection, schedule: Q01DX009 (ip), vehicle: saline) 173 % of control; (endpoint: median survival time, dose: 6.25 mg/kg/injection, schedule: Q01DX009 (ip), vehicle: saline) 214 % of control; (endpoint: median survival time, dose: 8.0 mg/kg/injection, schedule: Q01DX005 (ip), vehicle: water) 98 % of control; (endpoint: median survival time, dose: 9.38 mg/kg/injection, schedule: Q03HX024 (ip), vehicle: saline) 681 % of control. Besides, the T/C (endpoint: median survival time, dose: 12.0 mg/kg/injection, schedule: Q01DX009 (ip), vehicle: saline) was 102 % of control; the T/C (endpoint: median survival time, dose: 12.5 mg/kg/injection, schedule: Q01DX009 (ip), vehicle: saline) is 250 % of control and 284 % of control and 325 % of control; the T/C (endpoint: median survival time, dose: 18.75 mg/kg/injection, schedule: Q03HX024 (ip), vehicle: saline) is 681 % of control; the T/C (endpoint: median survival time, dose: 25.0 mg/kg/injection, schedule: Q01DX009 (ip), vehicle: saline) is 298 % of control and 300 % of control and 348 % of control; the T/C (endpoint: median survival time, dose: 50.0 mg/kg/injection, schedule: Q01DX009 (ip), vehicle: saline) was 290 % of control and 295 % of control and 334 % of control; the T/C (endpoint: median survival time, dose: 75.0 mg/kg/injection, schedule: Q03HX024 (ip), vehicle: saline) was 98 % of control. Moreover, the T/C by setting is: (endpoint: median survival time, dose: 100.0 mg/kg/injection, schedule: Q01DX009 (ip), vehicle: saline) 348 % of control and 378 % of control and 386 % of control; under setting [1], 151 % of control and 209 % of control; (endpoint: median survival time, dose: 400.0 mg/kg/injection, schedule: Q01DX009 (ip), vehicle: saline) 181 % of control.

Turning to `CCN(CC)c1ccc2cc3ccc(=[N+](CC)CC)cc-3oc2c1`, the T/C (endpoint: median survival time, dose: 4.0 mg/kg/injection, schedule: Q01DX005 (ip), vehicle: saline) is 104 % of control; the T/C (endpoint: median survival time, dose: 8.0 mg/kg/injection, schedule: Q01DX005 (ip), vehicle: saline) is 98 % of control; the T/C (endpoint: median survival time, dose: 16.0 mg/kg/injection, schedule: Q01DX005 (ip), vehicle: saline) is 105 % of control and 113 % of control.

As to `N[C@H](C(=O)O)[C@H]1ON=C(Cl)[C@@H]1O`, the T/C (endpoint: mean survival time, dose: 256.0 mg/kg/injection, schedule: Q01DX009 (ip), vehicle: saline) is 118 % of control; the T/C (endpoint: mean survival time, dose: 512.0 mg/kg/injection, schedule: Q01DX009 (ip), vehicle: saline) is 98 % of control; the T/C (endpoint: mean survival time, dose: 1024.0 mg/kg/injection, schedule: Q01DX009 (ip), vehicle: saline) was 98 % of control.

On to `CCCCCCCCCCCCCCCCCC(=O)Nc1ccn(C2OC(CO)C(O)C2O)c(=O)n1` (centres undefined), for which the T/C is 188 % of control under setting [2] and 121 % of control (endpoint: median survival time, dose: 100.0 mg/kg/injection, schedule: Q01DX009 (ip), vehicle: saline with Tween-80).

For the compound `CN(C)P1(=O)NCCCO1` (centres undefined), the T/C was 91 % of control (endpoint: median survival time, dose: 80.0 mg/kg/injection, schedule: Q01DX001 (ip), vehicle: saline); 90 % of control (endpoint: median survival time, dose: 160.0 mg/kg/injection, schedule: Q01DX001 (ip), vehicle: saline); 92 % of control (endpoint: median survival time, dose: 320.0 mg/kg/injection, schedule: Q01DX001 (ip), vehicle: saline); 95 % of control (endpoint: median survival time, dose: 640.0 mg/kg/injection, schedule: Q01DX001 (ip), vehicle: saline); 91 % of control (endpoint: median survival time, dose: 1280.0 mg/kg/injection, schedule: Q01DX001 (ip), vehicle: saline).

For `Nc1nncs1`, the T/C is, setting by setting: (endpoint: median survival time, dose: 7.5 mg/kg/injection, schedule: Q01DX009 (ip), vehicle: Klucel (hydroxypropylcellulose) (HPC)) 113 % of control; (endpoint: median survival time, dose: 60.0 mg/kg/injection, schedule: Q01DX009 (ip), vehicle: Klucel (hydroxypropylcellulose) (HPC)) 112 % of control; under setting [3], 118 % of control and 121 % of control and 116 % of control.
